Values quoted from earlier work, collected in patent US10835585B2, “Shared neoantigens” (priority 2015, dated 2020).

How the values were obtained:
[1] = more than 25 clinical trials
[2] = test system: ovarian carcinoma patients
healthy human volunteers = conditions: 8 healthy volunteers, one single s.c. administration, versus 4 placebo subjects; whole blood
[3] = test system: serum prostate specific antigen (PSA); conditions: advanced hormone refractory prostate cancer; personalized vaccination combined with a low dose of estramustine

Polyinosinic-Polycytidylic Acid-poly-L-lysine Carboxymethylcellulose [poly-ICLC]
toxicity profile [1]: relatively benign toxicity profile | generation of NY-ESO-1-specific CD4+ and CD8+ T-cell and antibody responses ([2]; 1.4 mg poly-ICLC and Montanide added to OLP, compared to OLP alone or OLP and Montanide, s.c.): markedly enhanced | patients showing induction of CD4+ and CD8+ T cell, as well as antibody responses to the peptide ([2]; ovarian carcinoma patients, poly-ICLC with NY-ESO-1 peptide vaccine and Montanide, phase 1): > 90% | differential expression of genes versus placebo (healthy human volunteers): up to 212 genes

C[C@]12CC[C@@H]3c4ccc(OC(=O)N(CCCl)CCCl)cc4CC[C@H]3[C@@H]1CC[C@@H]2O [estramustine]
patients with ≥50% decrease in serum prostate specific antigen (PSA) [3]: 54%
